What was measured:
[1] = MTT cytotoxicity, peripheral blood mononuclear cells; type: cell-based; conditions: human, peripheral blood mononuclear cells (PBMC); PBMC, nontumoral control, MTT, 48 h, mean ± SD
Procedure: (§1) The compounds were solubilized in dimethyl sulfoxide (DMSO, Fischer Chemical, NJ, USA) at 50,000 μg/mL and stored at −20°C until use. From the stock solution, six serial 1:2 double dilutions of each compound were prepared to start with concentrations of 100, 50, 25, 12.5, 6.25, and 3.125 μg/mL, respectively. 5-FU, one of the conventional drugs to treat CRC [34], was used as an antitumor compound control at concentrations ranging between 800 and 0.625 μM.
(§2) SW948 (Dukes' Type C, Grade III, premetastatic colorectal adenocarcinoma—CCL-237), SW48 (Dukes' Type C, Grade IV, noninvasive colorectal adenocarcinoma—CCL231), and SW620 (Dukes' Type C, Grade IV invasive colorectal adenocarcinoma—CCL227) (American Type Culture Collection Manassas, VA, USA) were maintained in standard conditions at 37°C, without a CO2 atmosphere. PBMCs and MCRT were used as nontumoral control cells. PBMCs were obtained by healthy donors, separated using Histopaque-1077 (Sigma-Aldrich) and cultured in RPMI-1640 medium (Sigma-Aldrich) supplemented with 10% SFB and 1% penicillin/streptomycin [46]. In turn, MCRT were obtained from healthy BALB/c mice; for this, mice were euthanized with CO2 after previous sedation, the colorectal tissue removed, cleaned up, and cut into 2 × 2 mm pieces, suspended in supplemented DMEM, and used immediately after collection. […] Moreover, the inclusion of PBMC also served to assess the systemic toxicity of FQAS.
(§3) The cytotoxic activity of synthesized FQASs and QASs was studied by measuring cell viability/mortality, determined with the MTT (3-(4,5-dimethylthiazol-2-yl)-2,5-diphenyl tetrazole bromide) method (VWR Chemicals and Reagents Avantor), upon exposure of each cell line to six serial dilutions of the different compounds independently. Unexposed cells were included as viability controls, and cells exposed to 5-FU were included as cytotoxicity controls. Briefly, cells were adjusted to 200,000 cells/mL in the corresponding supplemented culture medium, and 100 μL (20,000 cells/well) were dispensed into each 96-well cell culture plate (Nunc, Thermo Fisher Scientific). Twelve hours after seeding the monolayer, 100 μL dilution of each compound was added to each well; the plates containing CRC were incubated at 37°C in the absence of CO2, while plates with PBMCs and MCRT were incubated at 37°C and 5% CO2 atmosphere. For MCRT, each piece was placed into each well of a 96-well plate and exposed to each dilution of the FQASs and QASs. After 48 h of incubation, 30 μL/well of MTT (5 mg/mL) was added, and plates were left at 37°C for 3 h, protected from light. After this time, 100 μL/well of DMSO was added to solubilize the formazan crystals formed. Plates were read at 570 nm on a Varioskan plate reader (Thermo Fisher), and nonspecific absorbance was corrected by subtracting the optical densities (OD) of the blank solutions corresponding to the supplemented culture media (RPMI 1640, DMEM, or L-15 media) and 0.5% DMSO. Each concentration of the FQASs, QASs, and controls was evaluated in duplicate in three independent experiments.
(§4) The percentages of viability (equation (1)) and mortality (equation (2)) were calculated with the net OD:(1) % viability=OD treated cell÷nontreated cells×100, (2) % mortality=100−% viability.
(§5) The %mortality data for each compound concentration was recorded, and the median cytotoxic concentration (CC50), corresponding to the concentration at which 50% of cell death occurs, was calculated using GraphPad Prism 8 software (GraphPad, Software, Inc., La Jolla, CA, USA). […] Lastly, the index of selectivity (IS) was calculated by dividing the CC50 value obtained for control cells (MCRT and PBMCs) by the CC50 value obtained for each CRC cell phenotype using the formula: IS = CC50 (MCRT or PBMC) ÷ CC50 (SW948, SW48 or SW620).

[2] = test system: SW48 (Dukes' Type C, Grade IV, noninvasive colorectal adenocarcinoma); test: MTT cytotoxicity, SW48 cells; conditions: for CC50: SW48 cells, MTT, 48 h, mean ± SD; for Index of selectivity MCRT / SW48: IS = CC50 MCRT ÷ CC50 SW48; for Index of selectivity PBMC / SW48: IS = CC50 PBMC ÷ CC50 SW48
Procedure: as §1, §2, §3, §4, §5

[3] = Ex vivo MTT cytotoxicity, healthy murine colorectal tissue; type: cell-based, BALB/c mice; conditions: BALB/c, mouse, healthy murine colorectal tissue (MCRT) pieces, ex vivo, nontumoral control, MTT, 48 h, mean ± SD
Procedure: as §1, §2, §3, §4, §5

[4] = test system: CRC cell lines SW48, SW620, and SW948; test: MTT cytotoxicity across CRC cell lines (pooled statements, selectivity between lines); type: cell-based; conditions: for Index of selectivity SW48 vs. SW620: IS = CC50 SW48 ÷ CC50 SW620; for Index of selectivity SW948 vs. SW48: IS = CC50 SW948 ÷ CC50 SW48; for Index of selectivity SW948 vs. SW620: IS = CC50 SW948 ÷ CC50 SW620
Procedure: as §1, §2, §3, §4
The %mortality data for each compound concentration was recorded, and the median cytotoxic concentration (CC50), corresponding to the concentration at which 50% of cell death occurs, was calculated using GraphPad Prism 8 software (GraphPad, Software, Inc., La Jolla, CA, USA). […]

[5] = test system: SW620 (Dukes' Type C, Grade IV invasive colorectal adenocarcinoma); test: MTT cytotoxicity, SW620 cells; conditions: for CC50: Homo sapiens, 48 h; for Index of selectivity MCRT / SW620: IS = CC50 MCRT ÷ CC50 SW620; for Index of selectivity PBMC / SW620: IS = CC50 PBMC ÷ CC50 SW620
Procedure: as §1, §2, §3, §4, §5

[6] = test system: SW948 (Dukes' Type C, Grade III, premetastatic colorectal adenocarcinoma); test: MTT cytotoxicity, SW948 cells; conditions: for CC50: Homo sapiens, SW948, 48 h, SW948 cells, MTT, 48 h, mean ± SD; for Index of selectivity MCRT / SW948: IS = CC50 MCRT ÷ CC50 SW948; for Index of selectivity PBMC / SW948: IS = CC50 PBMC ÷ CC50 SW948
Procedure: as §1, §2, §3, §4, §5

SMILES	CC50 at 48 h [1] [µM]	CC50 ([2]; Homo sapiens, SW48, 48 h) [µM]	Index of selectivity MCRT / SW48 [2]	Index of selectivity PBMC / SW48 [2]	CC50 at 48 h [3] [µM]	Index of selectivity SW48 vs. SW620 [4]	Index of selectivity SW948 vs. SW48 [4]	Index of selectivity SW948 vs. SW620 [4]	CC50 [5] [µM]	Index of selectivity MCRT / SW620 [5]	Index of selectivity PBMC / SW620 [5]	CC50 [6] [µM]	Index of selectivity MCRT / SW948 [6]	Index of selectivity PBMC / SW948 [6]	cytotoxicity level (high/moderate/low) [2]	cytotoxicity level (high/moderate/low) [5]	cytotoxicity level (high/moderate/low) [6]	CC50 [2] [µM]
C[N+](C)(CCl)CCCC=C(c1ccc(C(F)(F)F)cc1)c1ccc(C(F)(F)F)cc1 [Compound 8]	42.3 ± 9.3	50.8 ± 4	2.0	0.8	102 ± 5	2.6	0.4	1.1	19.2 ± 3.5	5.3	2.2	20.4 ± 6.2	5.0	2.1	–	–	–	–
C[N+](C)(CI)CCCC=C(c1ccc(C(F)(F)F)cc1)c1ccc(C(F)(F)F)cc1 [Compound 9]	30.6 ± 2.1	40.2 ± 6	5.1	0.8	206 ± 19.4	1.2	0.5	0.6	32.2 ± 1	6.4	1.0	20 ± 4.7	10.3	1.5	–	–	–	–
C[N+](C)(C)CCCC=C(c1ccc(C(F)(F)F)cc1)c1ccc(C(F)(F)F)cc1 [Compound 10]	51.4 ± 5.3	44 ± 6	2.7	1.2	119 ± 8.7	2.3	0.3	0.7	18.8 ± 4.7	6.4	2.7	13.4 ± 3.9	8.9	3.8	–	–	–	–
C[N+](C)(CI)CCCCC=C(c1cccc(C(F)(F)F)c1)c1cccc(C(F)(F)F)c1 [Compound 11]	33.4 ± 2	22.1 ± 4	4.2	1.5	93.5 ± 13.9	1.2	1.0	1.2	18.1 ± 3.7	5.2	1.9	21.5 ± 4.5	4.4	1.6	–	–	–	–
C[N+](C)(CCl)CCCCC=C(c1ccc(C(F)(F)F)cc1)c1ccc(C(F)(F)F)cc1 [Compound 12]	40.5 ± 9.5	48 ± 5.1	2.3	0.8	111 ± 16.7	3.2	0.5	1.7	15.1 ± 1.5	7.3	2.7	25 ± 4.8	4.4	1.6	Moderate	High	High	–
C[N+](C)(CI)CCCCC=C(c1ccc(C(F)(F)F)cc1)c1ccc(C(F)(F)F)cc1 [Compound 13]	53.9 ± 3	18.5	–	3.3	> 293	1.0	1.7	1.7	16 ± 1.5	–	3.4	26.9 ± 4	–	2.0	–	–	–	16.3 ± 2
C[N+](C)(C)CCCCC=C(c1ccc(C(F)(F)F)cc1)c1ccc(C(F)(F)F)cc1 [Compound 14]	93.2 ± 13.1	16.3	22.7	5.0	419 ± 15	1.3	2.6	3.4	14.5 ± 2.9	28.9	6.4	49 ± 11.1	8.6	1.9	–	–	–	18.5 ± 3.6
